Tests used:
HBV Cp Y118F = assay: microbe, parasite or virus in culture; type: cell-based, Hepatitis B virus; settings: for EC50: Hepatitis B virus, Huh-7, read-out: Mean EC50; for Fold shift: Y118F vs wild type
HBV Cp Y38C = assay: microbe, parasite or virus in culture; type: cell-based, Hepatitis B virus; settings: for EC50: Hepatitis B virus, Huh-7, read-out: Mean EC50; for Fold shift: Y38C vs wild type
HBV Cp T109I = assay: microbe, parasite or virus in culture; type: cell-based, Hepatitis B virus; settings: for EC50: Hepatitis B virus, Huh-7, read-out: Mean EC50; for Fold shift: T109I vs wild type
HBV [1] = assay: HBV infection of primary human hepatocytes (PHHs); type: cell-based; settings: Hepatitis B virus, Hepatocyte, PHH
HBV Cp T109M = assay: microbe, parasite or virus in culture; type: cell-based, Hepatitis B virus; settings: for EC50: Hepatitis B virus, Huh-7, read-out: Mean EC50; for Fold shift: T109M vs wild type
HBV Cp T33N = assay: microbe, parasite or virus in culture; type: cell-based, Hepatitis B virus; settings: for EC50: Hepatitis B virus, Huh-7, read-out: Mean EC50; for Fold shift: T33N vs wild type
HBV [2] = assay: HBV RNA/DNA analyses in induced HepAD38 cells (Northern/Southern blot); type: cell-based, Hepatitis B virus; settings: HepAD38, 10-fold over VR EC50
HBV Cp Wild type = assay: microbe, parasite or virus in culture; type: cell-based, Hepatitis B virus; settings: for EC50: Hepatitis B virus, Huh-7, read-out: Mean EC50; for Fold shift: Wild type
HBV [3] = assay: Extracellular HBV DNA and pgRNA in HepAD38 cells (qPCR, RT-qPCR); type: cell-based, Hepatitis B virus; settings: HepAD38; concn ETV 0.01, ABI-H0731 2.0, GLS4 0.5, NVR 3-778 2.5, AT-130 0.8, VRD-32 0.8 μM
From the text: For HBV RNA Northern blot analysis, total cellular RNA or encapsidated pgRNA samples were resolved in a 1.5% agarose gel containing 2.2 M formaldehyde and transferred onto a Hybond-XL membrane (GE Healthcare). For DNA Southern blot analysis, HBV core DNA or cccDNA samples were resolved by electrophoresis in a 1.2% agarose gel and blotted onto a Hybond-XL membrane. Membranes were probed with either an [α-^32P]UTP (3,000 Ci/mmol; PerkinElmer)-labeled plus-strand-specific (for Northern blot hybridization) or minus-strand-specific (for Southern blot hybridization) HBV riboprobe and exposed to a phosphorimager screen. Extracellular HBV DNA and RNA were copurified from the culture medium of induced HepAD38 cells by using a MinElute virus vacuum kit (Qiagen). Viral DNA was quantified using the above-mentioned qPCR method directly, and HBV RNA was detected by RT-qPCR with the same core region primer/probe set after the removal of DNA contamination by DNase I (Thermo Fisher) treatment.

HBV Cp D29G = assay: microbe, parasite or virus in culture; type: cell-based, Hepatitis B virus; settings: for EC50: Hepatitis B virus, Huh-7, read-out: Mean EC50; for Fold shift: D29G vs wild type
HBV [4] = assay: HBV infection of HepG2-NTCP cells; type: cell-based; settings: Hepatitis B virus
[5] = tested on: HBV (genotype D, subtype ayw); assay: HBV replication assay in HepAD38 cells; type: cell-based, Hepatitis B virus; settings: Hepatitis B virus, HePAD38, HepAD38; total intracellular viral DNA; read-out: Mean EC50, viral DNA
HBV Cp I105T = assay: microbe, parasite or virus in culture; type: cell-based, Hepatitis B virus; settings: for EC50: Hepatitis B virus, Huh-7, read-out: Mean EC50; for Fold shift: I105T vs wild type
HBV Cp I105L = assay: microbe, parasite or virus in culture; type: cell-based, Hepatitis B virus; settings: for EC50: Hepatitis B virus, Huh-7, read-out: Mean EC50; for Fold shift: I105L vs wild type
HBV Cp Y38F = assay: microbe, parasite or virus in culture; type: cell-based, Hepatitis B virus; settings: for EC50: Hepatitis B virus, Huh-7, read-out: Mean EC50; for Fold shift: Y38F vs wild type
HBV Cp P25A = assay: microbe, parasite or virus in culture; type: cell-based, Hepatitis B virus; settings: for EC50: Hepatitis B virus, Huh-7, read-out: Mean EC50; for Fold shift: P25A vs wild type
[6] = total intracellular viral DNA, read-out: Mean EC50, viral DNA

`CCOC(=O)C1=C(CN2CCOCC2)NC(c2nccs2)=NC1c1ccc(F)cc1Br` (stereo not drawn) [GLS4] gave an EC50 (HBV Cp Y118F) of 84.7 ± 2.3 nM, an EC50 (HBV Cp Y38C) of 17 ± 9.5 nM and an EC50 (HBV Cp T109I) of 237 ± 16.6 nM. The EC50 (HBV [1]; read-out: EC50, HBeAg) was 1480 nM, the EC50 (HBV [1]; read-out: EC50, HBsAg) was 1860 nM and the EC50 (HBV [1]; read-out: EC50, pgRNA) was 1930 nM. The EC50 (HBV [1]; [6]) was 1940 nM, the EC50 (HBV Cp T109M) was 15 ± 5.6 nM and the EC50 (HBV Cp T33N) was 6.34 µM. For the same compound, the “Levels of encapsidated pgRNA by Northern blotting” value (shortened to “Levels of encapsidated pgRNA”) (HBV [2]) was “virtually undetectable”, the “rcDNA detection by Southern blot” value (HBV [2]) was “could not be detected” and the EC50 (HBV Cp Wild type) was 17.9 ± 0.4 nM. For the same compound, the “Extracellular DNA content (% of DMSO control)” value (HBV [3]) was 0.1 % of DMSO control, the “Extracellular pgRNA content (% of DMSO control)” value (HBV [3]) was 0.1 % of DMSO control and the EC50 (HBV Cp D29G) was 16.1 ± 0.4 nM. It also gave an EC50 (HBV [4]; read-out: EC50, HBeAg production) of 550 nM, an EC50 (HBV [4]; read-out: EC50, HBsAg production) of 670 nM and an EC50 (HBV [4]; read-out: EC50, pgRNA production) of 280 nM. For the same compound, the EC50 (HBV [4]; read-out: Mean EC50, HBeAg) was 549 ± 48 nM, the EC50 (HBV [4]; read-out: Mean EC50, HBsAg) was 673 ± 41 nM and the EC50 (HBV [4]; read-out: Mean EC50, pgRNA) was 279 ± 43 nM. The EC50 (HBV [4]; [6]) was 58 ± 6 nM, the EC50 [5] was 29 ± 9 nM and the EC50 (HBV Cp I105T) was 17 ± 2.7 nM. The EC50 (HBV Cp I105L) was 12 ± 6.5 nM, the EC50 (HBV Cp Y38F) was 65 ± 17 nM and the EC50 (HBV Cp P25A) was 451 ± 3.3 nM.
`O=C(Nc1cc(F)c(F)c(F)c1)c1ccc(F)c(S(=O)(=O)N2CCC(O)CC2)c1` [NVR 3-778] was tested, and the EC50 (HBV Cp Y118F) was 887 ± 478 nM, the Fold shift (HBV Cp Y118F) was 5 fold and the EC50 (HBV Cp Y38C) was 150 ± 48 nM. The Fold shift (HBV Cp Y38C) was 0.8 fold, the EC50 (HBV Cp T109I) was 77.4 ± 0.4 nM and the Fold shift (HBV Cp T109I) was 0.4 fold. It also gave an EC50 (HBV [1]; read-out: Mean EC50, HBeAg) of 4010 nM, an EC50 (HBV [1]; read-out: Mean EC50, HBsAg) of 5040 nM and an EC50 (HBV [1]; read-out: Mean EC50, pgRNA) of 4200 nM. It also gave an EC50 (HBV [1]; [6]) of 1680 nM, an EC50 (HBV Cp T109M) of 161 ± 97 nM and a Fold shift (HBV Cp T109M) of 0.9 fold. For the same compound, the EC50 (HBV Cp T33N) was over 10 µM, the Fold shift (HBV Cp T33N) was over 56 fold and the “Levels of encapsidated pgRNA” value (HBV [2]) was “virtually undetectable”. The EC50 (HBV Cp Wild type) was 178 ± 42 nM, the Fold shift (HBV Cp Wild type) was 1 fold and the “Extracellular DNA content (% of DMSO control)” value (HBV [3]) was 1.0 % of DMSO control. The “Extracellular pgRNA content (% of DMSO control)” value (HBV [3]) was 2.0 % of DMSO control, the Fold shift (HBV Cp D29G) was 1.2 fold and the EC50 (HBV Cp D29G) was 210 ± 52 nM. For the same compound, the EC50 (HBV [4]; read-out: Mean EC50, HBeAg) was 8360 nM, the EC50 (HBV [4]; read-out: Mean EC50, HBsAg) was 9260 nM and the EC50 (HBV [4]; read-out: Mean EC50, pgRNA) was 7600 nM. The EC50 (HBV [4]; [6]) was 590 ± 71 nM, the EC50 [5] was 238 ± 33 nM and the EC50 (HBV Cp I105T) was 726 ± 98 nM. The Fold shift (HBV Cp I105T) was 4.1 fold, the EC50 (HBV Cp I105L) was 127 ± 73 nM and the Fold shift (HBV Cp I105L) was 0.7 fold. The EC50 (HBV Cp Y38F) was 208 ± 49 nM, the Fold shift (HBV Cp Y38F) was 1.2 fold and the EC50 (HBV Cp P25A) was 719 ± 58 nM. The Fold shift (HBV Cp P25A) was 4 fold.
In the case of `O=C1CO[C@H](c2cn(-c3ccc(F)cc3)nc2-c2ccc(F)cc2)N1CCc1ccc(O)cc1` [VRD-32], the EC50 (HBV Cp Y118F) is reported as 805 ± 423 nM, the Fold shift (HBV Cp Y118F) is reported as 50 fold and the EC50 (HBV Cp Y38C) is reported as 20 ± 1.4 nM. It also gave a Fold shift (HBV Cp Y38C) of 1.2 fold, an EC50 (HBV Cp T109I) of 15.8 ± 1.9 nM and a Fold shift (HBV Cp T109I) of 1 fold. The EC50 (HBV Cp T109M) was 25 ± 23 nM, the Fold shift (HBV Cp T109M) was 1.6 fold and the EC50 (HBV Cp T33N) was 1.29 µM. The Fold shift (HBV Cp T33N) was 80 fold, the “Levels of encapsidated pgRNA” value (HBV [2]) was “virtually undetectable” and the “rcDNA detection by Southern blot” value (HBV [2]) was “could not be detected”. The EC50 (HBV Cp Wild type) was 16.1 ± 7.8 nM, the Fold shift (HBV Cp Wild type) was 1 fold and the “Extracellular DNA content (% of DMSO control)” value (HBV [3]) was 0.3 % of DMSO control. For the same compound, the “Extracellular pgRNA content (% of DMSO control)” value (HBV [3]) was 0.9 % of DMSO control, the Fold shift (HBV Cp D29G) was 0.9 fold and the EC50 (HBV Cp D29G) was 13.8 ± 1 nM. It also gave an EC50 (HBV Cp I105T) of 103 ± 87 nM, a Fold shift (HBV Cp I105T) of 6.4 fold and an EC50 (HBV Cp I105L) of 40 ± 19 nM. The Fold shift (HBV Cp I105L) was 2.5 fold, the EC50 (HBV Cp Y38F) was 20 ± 10 nM and the Fold shift (HBV Cp Y38F) was 1.3 fold. The EC50 (HBV Cp P25A) was 15.9 ± 0.04 nM and the Fold shift (HBV Cp P25A) was 1 fold.

Reference: PMC7577125 (Antimicrobial Agents and Chemotherapy, 2020)
